row,Compound,melting point [°C]
1,C[Si](C)(C)C#Cc1ccc([N+](=O)[O-])cc1,95 to 100
2,Cc1cc2cc(CN3CCC(C(N)=O)CC3)cnc2cc1NC(=O)c1ccc(-c2ccc(F)cc2)cc1,265
3,Cc1nc(N)c2nc(C)n(CCNS(C)(=O)=O)c2c1C,> 250
4,COc1ccccc1NC(=O)Nc1nc(Cl)nc(N(CCC(=O)O)Cc2cccc(C)c2)n1,205
5,COCc1cnc2c(NC(=O)c3c(Cl)cccc3Cl)cccc2c1N1CCN(C)C1=O,199 to 201
6,COc1cccc(C(=O)CS(C)=O)c1N (centres undefined),106 to 108
7,O=C1Nc2ccccc2OC1CCCN1CCC(Cc2ccccc2)CC1 (centres undefined),108
8,CCCc1nc2c(N)nc3ccc(-c4ccc(CO)cc4)cc3c2s1,212 to 214
9,CC(N)Cn1cc(-c2ccccc2)c2ccccc2c1=O (centres undefined),104
10,COCCOc1ccc(OCC(O)CNCCOc2cccc(O)c2C(N)=O)cc1 (centres undefined),176 to 179
11,CC(C)(C)c1cc(C(=O)NCCOC(=O)c2cc(C(C)(C)C)c(O)c(C(C)(C)C)c2)cc(C(C)(C)C)c1O,185 to 187
12,COc1cc2cnnc(N3CCC(CC(C)O)CC3)c2cc1OC (centres undefined),154 to 156
13,CNc1ccnc(Cl)c1N,166 to 168
14,Cc1cccc2c1OC[C@H](NC(=O)OC(C)(C)C)C(=O)N2,179
15,N=C(Nc1ccc2[nH]cc(C3CCN(C(=O)c4ccccc4)CC3)c2c1)c1cccs1,180 to 183
16,Fc1cccc(F)c1C1=NC(c2ccccc2Br)CCS1 (centres undefined),136 to 138
17,CC(N)c1c[nH]c(-c2ccccc2)n1 (centres undefined),30
18,N#CC(C#N)=C1CC(=C(C#N)C#N)c2ccccc21,224 to 228
19,O=C1OCCC12Oc1ccccc1C2=O (centres undefined),111 to 112
20,N#CCCNC(=O)c1cccc(-c2ccc3ccn(Cc4ccc(Cl)cc4Cl)c3c2)c1,153 to 154
21,CON(C)C(=O)c1cc(C(F)(F)F)nc2c(C(F)(F)F)cccc12,93 to 95
22,CCOC(=O)[C@H](C)Oc1ccc2cc(Br)ccc2c1,72 to 74
23,O=C(Nc1ccc(C(F)(F)F)cc1)c1ccc(-c2nn(Cc3ccccc3)c3ccccc23)o1,205 to 206
24,CCCCCCCCCCCCCCOCCCSCCCO,38 to 41
25,Nc1cccc2c(OCc3ccccc3)ccnc12,115

row,Compound,melting point [°C]
1,CC1(C)CCc2c1cc(C=O)c(O)c2Br,77.5 to 78.5
2,COC(=O)c1cncc(OCc2cccc(OCc3nc(-c4ccccc4)oc3C)c2)c1,96 to 97
3,O=C1c2ccccc2C(Cc2ccncc2)(Cc2ccncc2)C(=O)N1c1ccccc1,> 270
4,CC(=O)Nc1ccc(S(=O)(=O)NCCCN2CCOCC2)cc1,97 to 98
5,NS(=O)(=O)c1ccc2c(c1)C(=O)c1ccccc1C2=O,258 to 261
6,O=C(O)CCCCCCCn1nnc(-c2ccccc2)c1-c1ccccc1,103 to 104
7,COC(=O)/C(=N\OC1(C(=O)O)CCC1)c1ccco1,133 to 134
8,CC(=O)OC(CN1C(=O)N(C(C)=O)C2(CC(C)(C)N(C(C)=O)C(C)(C)C2)C1=O)CN1C(=O)N(C(C)=O)C2(CC(C)(C)N(C(C)=O)C(C)(C)C2)C1=O,286 to 288
9,CC(C)(C)NCC(O)COc1ccccc1C#Cc1ccc(C(N)=O)cc1 (centres undefined),199 to 201
10,ClCCCON=C(Cl)c1c(Cl)cccc1Cl,69 to 71
11,NC(=O)CCNc1cc(Oc2ccc(C(F)(F)F)cc2Cl)ccc1[N+](=O)[O-],137 to 138
12,COc1cc(OC)c2c(C)c(CCN3CCN(c4ccccc4OC)CC3)c(=O)oc2c1,140 to 142
13,CC(C)n1cc(-c2nc(C(=O)O)c(N)nc2-c2ccc(F)cc2)ccc1=O,222
14,CCN1C(C)=CC(=O)CS1(=O)=O,90 to 92
15,CC(C)=NOCc1nc2c(N)nc(C)c(C)c2n1CCCCNC(=O)C(C)C,180 to 181
16,Cc1nc(N2CCN(Cc3ccc4nonc4c3)C2=O)sc1C(=O)NCc1cccnc1,110 to 112
17,CCCCCS(=O)(=O)NC(=O)/C=C/c1ccc(OCCO[Si](C(C)C)(C(C)C)C(C)C)cc1Oc1ncc(C(F)(F)F)cc1Cl,106 to 108
18,CC1(C)C(=O)Oc2ccc3ccc(C=O)cc3c21,135 to 137
19,COCOCc1nc(N)c2nccnc2n1,129 to 131
20,CC(C)Cn1c(=O)n(C)c(=O)c2c(SCCCO)c(Cc3cccnc3)sc21,119 to 121
21,COC(=O)C#CC(=O)c1ccccc1C,43 to 45
22,CCOC(=O)CCc1n[nH]c(SCc2ccc(OCc3nc(-c4ccccc4)oc3C)cc2)n1,114 to 115
23,COC1(OC)CCC2=C3C(c4ccc(C5OCC(C)(C)CO5)cc4)CC4(C)C(=O)CCC4C3CCC2(O)C1 (centres undefined),194 to 202
24,COc1cc(C(=O)c2ccc([N+](=O)[O-])cc2)c(CC(=O)O)cc1Br,189 to 192
